Data taken from ChEMBL document CHEMBL1201862, “PubChem BioAssay data set” (2004).
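Assay format: 96-well plates, 48-hour exposure. The concentration for 50% growth inhibition is given as GI50.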 Calls of active or inactive are those of the source. No stated cut-off is given here; in the data, active = GI50 up to about 1.1 µM and inactive = higher.

How the values were obtained:
Assay in all cases: NCI-60 cell line screen, 48 h
SK-MEL-2 = tested on: SK-MEL-2
UACC-62 = tested on: UACC-62
786-0 = tested on: 786-0
NCI/ADR-RES = tested on: NCI/ADR-RES
COLO 205 = tested on: COLO 205
OVCAR-4 = tested on: OVCAR-4
HCT-15 = tested on: HCT-15
KM12 = tested on: KM12
SF-268 = tested on: SF-268
RPMI-8226 = tested on: RPMI-8226
MDA-MB-231 = tested on: MDA-MB-231
PC-3 = tested on: PC-3
CAKI-1 = tested on: CAKI-1
CCRF-CEM = tested on: CCRF-CEM
SK-MEL-5 = tested on: SK-MEL-5
T47D = tested on: T47D
SW-620 = tested on: SW-620
M14 = tested on: M14
TK-10 = tested on: TK-10
NCI-H23 = tested on: NCI-H23
LOX IMVI = tested on: LOX IMVI
UO-31 = tested on: UO-31
SK-OV-3 = tested on: SK-OV-3
UACC-257 = tested on: UACC-257
OVCAR-3 = tested on: OVCAR-3
A498 = tested on: A498
SNB-19 = tested on: SNB-19
MOLT-4 = tested on: MOLT-4
MCF7 = tested on: MCF7
ACHN = tested on: ACHN
K562 = tested on: K562
SK-MEL-28 = tested on: SK-MEL-28
SNB-75 = tested on: SNB-75
OVCAR-8 = tested on: OVCAR-8
SN12C = tested on: SN12C
SR = tested on: SR
OVCAR-5 = tested on: OVCAR-5
HCT-116 = tested on: HCT-116
DU-145 = tested on: DU-145
EKVX = tested on: EKVX
U-251 = tested on: U-251
NCI-H226 = tested on: NCI-H226
HT-29 = tested on: HT-29
BT-549 = tested on: BT-549
HOP-92 = tested on: HOP-92
NCI-H522 = tested on: NCI-H522
RXF 393 = tested on: RXF 393
A549 = tested on: A549
HOP-62 = tested on: HOP-62
NCI-H460 = tested on: NCI-H460
SF-295 = tested on: SF-295
IGROV-1 = tested on: IGROV-1
MDA-N = tested on: MDA-N
HCC 2998 = tested on: HCC 2998
MDA-MB-435 = tested on: MDA-MB-435
HL-60 = tested on: HL-60
Malme-3M = tested on: Malme-3M
Hs-578T = tested on: Hs-578T
SF-539 = tested on: SF-539

## CCCCCCNC(=O)CCC(NC(=O)c1ccc(N(C)Cc2cnc3nc(N)nc(N)c3n2)cc1)C(=O)NCCCCCC (stereo not drawn)
SK-MEL-2
  GI50: > 100 µM (inactive)
UACC-62
  GI50: 2.68 µM (inactive)
786-0
  GI50: > 100 µM (inactive)
NCI/ADR-RES
  GI50: > 100 µM (inactive)
COLO 205
  GI50: > 100 µM (inactive)
OVCAR-4
  GI50: > 100 µM (inactive)
HCT-15
  GI50: > 100 µM
KM12
  GI50: > 100 µM (inactive)
SF-268
  GI50: > 100 µM (inactive)
RPMI-8226
  GI50: 37.8 µM (inactive)
MDA-MB-231
  GI50: 34.8 µM (inactive)
PC-3
  GI50: > 100 µM (inactive)
CAKI-1
  GI50: > 100 µM (inactive)
CCRF-CEM
  GI50: > 100 µM (inactive)
SK-MEL-5
  GI50: 7.41 µM (inactive)
T47D
  GI50: > 100 µM (inactive)
SW-620
  GI50: > 100 µM (inactive)
M14
  GI50: 73.8 µM (inactive)
TK-10
  GI50: > 100 µM (inactive)
NCI-H23
  GI50: > 100 µM (inactive)
LOX IMVI
  GI50: 12.4 µM (inactive)
UO-31
  GI50: > 100 µM (inactive)
SK-OV-3
  GI50: 17.7 µM (inactive)
UACC-257
  GI50: 37.1 µM (inactive)
OVCAR-3
  GI50: > 100 µM (inactive)
A498
  GI50: > 100 µM (inactive)
SNB-19
  GI50: > 100 µM (inactive)
MOLT-4
  GI50: > 100 µM (inactive)
MCF7
  GI50: 18.3 µM (inactive)
ACHN
  GI50: > 100 µM (inactive)
K562
  GI50: 2.52 µM (inactive)
SK-MEL-28
  GI50: > 100 µM (inactive)
SNB-75
  GI50: > 100 µM (inactive)
OVCAR-8
  GI50: > 100 µM (inactive)
SN12C
  GI50: > 100 µM (inactive)
SR
  GI50: > 100 µM (inactive)
OVCAR-5
  GI50: > 100 µM (inactive)
HCT-116
  GI50: > 100 µM (inactive)
DU-145
  GI50: 89.3 µM (inactive)
EKVX
  GI50: 37.4 µM (inactive)
U-251
  GI50: > 100 µM (inactive)
NCI-H226
  GI50: > 100 µM (inactive)
HT-29
  GI50: 88.7 µM (inactive)
BT-549
  GI50: > 100 µM (inactive)
HOP-92
  GI50: 98.2 µM (inactive)
NCI-H522
  GI50: 63 µM (inactive)
RXF 393
  GI50: 39.4 µM (inactive)
A549
  GI50: > 100 µM (inactive)
HOP-62
  GI50: > 100 µM (inactive)
NCI-H460
  GI50: 47.2 µM (inactive)
SF-295
  GI50: 16.7 µM (inactive)
IGROV-1
  GI50: 16.2 µM (inactive)
MDA-N
  GI50: 9.89 µM (inactive)
HCC 2998
  GI50: > 100 µM (inactive)
MDA-MB-435
  GI50: > 100 µM (inactive)

## C/C=C(/C)C(=O)O[C@H]1C[C@@H]2[C@@H](O)c3occ(C)c3C[C@]2(C)[C@@H](C)C1
UACC-62
  GI50: 13.4 µM (inactive)
786-0
  GI50: 16.1 µM (inactive)
NCI/ADR-RES
  GI50: 14.2 µM (inactive)
COLO 205
  GI50: 16.2 µM (inactive)
HL-60
  GI50: 9.93 µM (inactive)
OVCAR-4
  GI50: 18 µM (inactive)
HCT-15
  GI50: 18.7 µM
KM12
  GI50: 16.3 µM (inactive)
SF-268
  GI50: 16 µM (inactive)
RPMI-8226
  GI50: 25.6 µM (inactive)
MDA-MB-231
  GI50: 15.5 µM (inactive)
PC-3
  GI50: 14.4 µM (inactive)
CAKI-1
  GI50: 18.3 µM (inactive)
CCRF-CEM
  GI50: 18.4 µM (inactive)
SK-MEL-5
  GI50: 10.4 µM (inactive)
T47D
  GI50: 11.6 µM (inactive)
SW-620
  GI50: 16.2 µM (inactive)
M14
  GI50: 15.6 µM (inactive)
TK-10
  GI50: 17.6 µM (inactive)
NCI-H23
  GI50: 17.8 µM (inactive)
LOX IMVI
  GI50: 17.5 µM (inactive)
Malme-3M
  GI50: 15.8 µM (inactive)
SK-OV-3
  GI50: 17.1 µM (inactive)
UACC-257
  GI50: 11.1 µM (inactive)
OVCAR-3
  GI50: 17.1 µM (inactive)
SNB-19
  GI50: 16.8 µM (inactive)
MOLT-4
  GI50: 15.2 µM (inactive)
MCF7
  GI50: 20.9 µM (inactive)
ACHN
  GI50: 17.1 µM (inactive)
K562
  GI50: 10.4 µM (inactive)
SK-MEL-28
  GI50: 16.3 µM (inactive)
OVCAR-8
  GI50: 19.2 µM (inactive)
Hs-578T
  GI50: 28.8 µM (inactive)
SN12C
  GI50: 14.1 µM (inactive)
SR
  GI50: 14.2 µM (inactive)
OVCAR-5
  GI50: 19.6 µM (inactive)
HCT-116
  GI50: 15.2 µM (inactive)
DU-145
  GI50: 14.8 µM (inactive)
EKVX
  GI50: 15.8 µM (inactive)
U-251
  GI50: 14.8 µM (inactive)
NCI-H226
  GI50: 14.2 µM (inactive)
HT-29
  GI50: 15.6 µM (inactive)
SF-539
  GI50: 17.5 µM (inactive)
HOP-92
  GI50: 17.4 µM (inactive)
NCI-H522
  GI50: 14.6 µM (inactive)
RXF 393
  GI50: 14.4 µM (inactive)
HOP-62
  GI50: 17.4 µM (inactive)
NCI-H460
  GI50: 22.4 µM (inactive)
SF-295
  GI50: 15.2 µM (inactive)
IGROV-1
  GI50: 16.7 µM (inactive)
MDA-N
  GI50: 18.7 µM (inactive)
HCC 2998
  GI50: 16.6 µM (inactive)
MDA-MB-435
  GI50: 16.5 µM (inactive)
